Experimental data as given in ChEMBL document CHEMBL1926681, “Novel inhibitors of epidermal growth factor receptor: (4-(Arylamino)-7H-pyrrolo[2,3-d]pyrimidin-6-yl)(1H-indol-2-yl)methanones and (1H-indol-2-yl)(4-(phenylamino)thieno[2,3-d]pyrimidin-6-yl)methanones” (Bioorg Med Chem, 2012).
pIC50: −log10 of the molar value. Calls of active or inactive are those of the source. No cut-off for these calls is given here.

Experiments:
[1] = biological target: Hepatocyte growth factor receptor (Homo sapiens) (UniProt P08581); assay: Inhibition of MET using poly(Ala, Glu, Lys, Tyr) as substrate and [gamma33P]ATP at 1 uM after 60 mins by scintillation counting
Sequence of Hepatocyte growth factor receptor (Homo sapiens) (P08581 whole entry): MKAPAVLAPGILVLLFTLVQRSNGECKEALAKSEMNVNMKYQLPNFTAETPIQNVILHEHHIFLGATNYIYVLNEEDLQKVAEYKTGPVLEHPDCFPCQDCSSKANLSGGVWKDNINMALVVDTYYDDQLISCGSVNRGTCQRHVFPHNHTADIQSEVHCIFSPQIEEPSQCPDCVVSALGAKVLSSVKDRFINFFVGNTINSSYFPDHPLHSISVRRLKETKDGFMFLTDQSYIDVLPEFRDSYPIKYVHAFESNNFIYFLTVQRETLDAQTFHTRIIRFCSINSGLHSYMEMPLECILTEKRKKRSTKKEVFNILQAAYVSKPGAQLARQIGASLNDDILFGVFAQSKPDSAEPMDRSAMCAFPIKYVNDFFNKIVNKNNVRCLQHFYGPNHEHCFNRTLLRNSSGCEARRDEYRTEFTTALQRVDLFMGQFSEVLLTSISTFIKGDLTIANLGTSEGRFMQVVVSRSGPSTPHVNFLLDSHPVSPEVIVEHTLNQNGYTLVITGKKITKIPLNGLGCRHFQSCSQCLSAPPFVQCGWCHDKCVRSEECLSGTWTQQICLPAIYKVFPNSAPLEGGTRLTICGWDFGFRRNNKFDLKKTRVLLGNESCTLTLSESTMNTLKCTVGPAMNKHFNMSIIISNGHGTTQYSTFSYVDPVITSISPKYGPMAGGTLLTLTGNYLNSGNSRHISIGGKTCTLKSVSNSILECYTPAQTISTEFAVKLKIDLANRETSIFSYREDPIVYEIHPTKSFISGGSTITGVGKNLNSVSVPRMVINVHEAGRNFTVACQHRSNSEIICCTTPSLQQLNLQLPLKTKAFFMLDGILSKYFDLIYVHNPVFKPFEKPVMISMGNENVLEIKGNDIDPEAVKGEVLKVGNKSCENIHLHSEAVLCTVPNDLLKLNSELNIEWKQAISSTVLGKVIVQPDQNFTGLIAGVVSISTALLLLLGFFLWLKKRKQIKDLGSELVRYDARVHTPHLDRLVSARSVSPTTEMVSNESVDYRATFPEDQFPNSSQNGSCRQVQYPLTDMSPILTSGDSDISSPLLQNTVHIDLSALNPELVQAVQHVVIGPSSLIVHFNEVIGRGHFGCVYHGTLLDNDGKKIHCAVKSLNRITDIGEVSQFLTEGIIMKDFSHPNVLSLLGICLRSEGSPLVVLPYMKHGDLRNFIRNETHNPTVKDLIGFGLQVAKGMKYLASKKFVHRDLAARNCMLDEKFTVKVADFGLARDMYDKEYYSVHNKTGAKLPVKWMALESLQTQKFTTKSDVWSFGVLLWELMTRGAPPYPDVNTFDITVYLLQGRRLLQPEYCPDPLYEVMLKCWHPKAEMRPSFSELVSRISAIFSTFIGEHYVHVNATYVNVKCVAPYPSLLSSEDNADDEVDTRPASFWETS

[2] = Cytotoxicity against human PXF 698L cells after 4 days by propidium iodide staining-based fluorometric analysis; type: functional, cell-based; conditions: 96 h
[3] = Cytotoxicity against human MAXF 401NL cells after 4 days by propidium iodide staining-based fluorometric analysis; type: functional, cell-based; conditions: 96 h
SAOS-2 = assay: Cytotoxicity against human Saos2 cells after 4 days by propidium iodide staining-based fluorometric analysis; type: functional, cell-based; conditions: SAOS-2, 96 h, read-out: IC50
[4] = Cytotoxicity against human BXF 1218L cells after 4 days by propidium iodide staining-based fluorometric analysis; type: functional, cell-based; conditions: 96 h
[5] = Cytotoxicity against human LXFA 526L cells after 4 days by propidium iodide staining-based fluorometric analysis; type: functional, cell-based; conditions: 96 h
[6] = Cytotoxicity against human PC3M cells after 4 days by propidium iodide staining-based fluorometric analysis; type: functional, cell-based; conditions: PC-3M, 96 h
TE-671 = assay: Cytotoxicity against human TE671 cells after 4 days by propidium iodide staining-based fluorometric analysis; type: functional, cell-based; conditions: TE-671, 96 h
DU-145 = assay: Cytotoxicity against human DU145 cells after 4 days by propidium iodide staining-based fluorometric analysis; type: functional, cell-based; conditions: DU-145, 96 h
[7] = Cytotoxicity against human OVXF 899L cells after 4 days by propidium iodide staining-based fluorometric analysis; type: functional, cell-based; conditions: 96 h
[8] = Cytotoxicity against human RXF 393NL cells after 4 days by propidium iodide staining-based fluorometric analysis; type: functional, cell-based; conditions: 96 h
[9] = Cytotoxicity against human PAXF 1657L cells after 4 days by propidium iodide staining-based fluorometric analysis; type: functional, cell-based; conditions: 96 h
[10] = Cytotoxicity against human PXF 1752L cells after 4 days by propidium iodide staining-based fluorometric analysis; type: functional, cell-based; conditions: 96 h
[11] = Cytotoxicity against human BXF T24 cells after 4 days by propidium iodide staining-based fluorometric analysis; type: functional, cell-based; conditions: T-24, 96 h
[12] = Cytotoxicity against human MDA231 cells after 4 days by propidium iodide staining-based fluorometric analysis; type: functional, cell-based; conditions: MDA-MB-231, 96 h
[13] = Cytotoxicity against human MEXF 1341L cells after 4 days by propidium iodide staining-based fluorometric analysis; type: functional, cell-based; conditions: 96 h
HCT-116 = assay: Cytotoxicity against human HCT116 cells after 4 days by propidium iodide staining-based fluorometric analysis; type: functional, cell-based; conditions: HCT-116, 96 h
MCF7 = assay: Cytotoxicity against human MCF7 cells after 4 days by propidium iodide staining-based fluorometric analysis; type: functional, cell-based; conditions: MCF7, 96 h
[14] = Cytotoxicity against human MEXF 276L cells after 4 days by propidium iodide staining-based fluorometric analysis; type: functional, cell-based; conditions: MEXF276L, 96 h
[15] = Cytotoxicity against human GXF251L cells after 4 days by propidium iodide staining-based fluorometric analysis; type: functional, cell-based; conditions: GXF 251L, 96 h
[16] = Cytotoxicity against human RXF 1781L cells after 4 days by propidium iodide staining-based fluorometric analysis; type: functional, cell-based; conditions: 96 h
[17] = Cytotoxicity against human CXF 269L cells after 4 days by propidium iodide staining-based fluorometric analysis; type: functional, cell-based; conditions: 96 h
[18] = Cytotoxicity against human DIFI cells after 4 days by propidium iodide staining-based fluorometric analysis; type: functional, cell-based; conditions: 96 h
[19] = Cytotoxicity against human LXFA 629L cells after 4 days by propidium iodide staining-based fluorometric analysis; type: functional, cell-based; conditions: 96 h
[20] = Cytotoxicity against human BXF 1352L cells after 4 days by propidium iodide staining-based fluorometric analysis; type: functional, cell-based; conditions: 96 h
MKN-45 = assay: Cytotoxicity against human MKN45 cells after 4 days by propidium iodide staining-based fluorometric analysis; type: functional, cell-based; conditions: MKN-45, 96 h
[21] = Cytotoxicity against human LXFL 529L cells after 4 days by propidium iodide staining-based fluorometric analysis; type: functional, cell-based; conditions: 96 h
[22] = Cytotoxicity against human PXF 1118L cells after 4 days by propidium iodide staining-based fluorometric analysis; type: functional, cell-based; conditions: 96 h
[23] = Cytotoxicity against human UXF 1138L cells after 4 days by propidium iodide staining-based fluorometric analysis; type: functional, cell-based; conditions: 96 h
RKO = assay: Cytotoxicity against human RKO cells after 4 days by propidium iodide staining-based fluorometric analysis; type: functional, cell-based; conditions: 96 h
[24] = biological target: Tyrosine-protein kinase ABL1 (Homo sapiens) (UniProt P00519); assay: Inhibition of ABL1 using poly(Ala, Glu, Lys, Tyr) as substrate and [gamma33P]ATP at 1 uM after 60 mins by scintillation counting
Sequence of Tyrosine-protein kinase ABL1 (Homo sapiens) (P00519 whole entry): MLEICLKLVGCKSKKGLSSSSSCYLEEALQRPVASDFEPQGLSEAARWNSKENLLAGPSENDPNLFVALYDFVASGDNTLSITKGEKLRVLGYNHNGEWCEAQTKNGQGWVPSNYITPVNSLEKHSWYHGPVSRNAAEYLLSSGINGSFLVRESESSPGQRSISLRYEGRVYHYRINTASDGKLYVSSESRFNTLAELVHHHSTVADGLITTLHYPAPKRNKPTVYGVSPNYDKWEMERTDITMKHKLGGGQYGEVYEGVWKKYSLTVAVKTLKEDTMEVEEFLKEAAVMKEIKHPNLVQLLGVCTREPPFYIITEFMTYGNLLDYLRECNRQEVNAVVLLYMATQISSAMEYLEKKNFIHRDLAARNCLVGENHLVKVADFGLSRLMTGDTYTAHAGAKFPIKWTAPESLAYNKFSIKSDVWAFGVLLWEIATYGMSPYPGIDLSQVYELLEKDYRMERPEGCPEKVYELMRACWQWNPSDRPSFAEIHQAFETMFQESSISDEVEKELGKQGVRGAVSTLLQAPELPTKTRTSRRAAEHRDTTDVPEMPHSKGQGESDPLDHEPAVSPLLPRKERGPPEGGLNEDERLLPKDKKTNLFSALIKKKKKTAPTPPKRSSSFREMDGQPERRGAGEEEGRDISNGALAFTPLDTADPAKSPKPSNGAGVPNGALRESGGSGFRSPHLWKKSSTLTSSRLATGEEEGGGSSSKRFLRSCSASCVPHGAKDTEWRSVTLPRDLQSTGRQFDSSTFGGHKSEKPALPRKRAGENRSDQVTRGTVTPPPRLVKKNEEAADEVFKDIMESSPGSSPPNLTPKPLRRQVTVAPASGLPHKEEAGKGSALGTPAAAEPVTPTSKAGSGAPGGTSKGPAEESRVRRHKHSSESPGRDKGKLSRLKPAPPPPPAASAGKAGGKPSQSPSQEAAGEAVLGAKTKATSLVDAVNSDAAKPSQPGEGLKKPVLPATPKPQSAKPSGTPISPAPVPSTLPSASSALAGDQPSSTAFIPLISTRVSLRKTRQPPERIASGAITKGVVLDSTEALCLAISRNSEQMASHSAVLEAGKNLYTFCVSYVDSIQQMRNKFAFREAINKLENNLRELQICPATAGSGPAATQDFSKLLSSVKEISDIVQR

LNCaP = assay: Cytotoxicity against human LNCAP cells after 4 days by propidium iodide staining-based fluorometric analysis; type: functional, cell-based; conditions: 96 h
CWR22R = assay: Cytotoxicity against human 22Rv1 cells after 4 days by propidium iodide staining-based fluorometric analysis; type: functional, cell-based; conditions: 22Rv1, 96 h
[25] = Cytotoxicity against human LXFA 289L cells after 4 days by propidium iodide staining-based fluorometric analysis; type: functional, cell-based; conditions: 96 h
[26] = Cytotoxicity against human PAXF 546L cells after 4 days by propidium iodide staining-based fluorometric analysis; type: functional, cell-based; conditions: 96 h
[27] = Cytotoxicity against human LXFL 1121L cells after 4 days by propidium iodide staining-based fluorometric analysis; type: functional, cell-based; conditions: 96 h
[28] = Cytotoxicity against human LIXF 575L cells after 4 days by propidium iodide staining-based fluorometric analysis; type: functional, cell-based; conditions: 96 h
[29] = Cytotoxicity against human RXF 486L cells after 4 days by propidium iodide staining-based fluorometric analysis; type: functional, cell-based; conditions: 96 h
[30] = Cytotoxicity against human MEXF 462NL cells after 4 days by propidium iodide staining-based fluorometric analysis; type: functional, cell-based; conditions: 96 h
HT-29 = assay: Cytotoxicity against human HT-29 cells after 4 days by propidium iodide staining-based fluorometric analysis; type: functional, cell-based; conditions: HT-29, 96 h
CAL-27 = assay: Cytotoxicity against human CAL27 cells after 4 days by propidium iodide staining-based fluorometric analysis; type: functional, cell-based; conditions: CAL-27, 96 h
NCI-H460 = assay: Cytotoxicity against human H460 cells after 4 days by propidium iodide staining-based fluorometric analysis; type: functional, cell-based; conditions: NCI-H460, 96 h
OVCAR-3 = assay: Cytotoxicity against human OVCAR3 cells after 4 days by propidium iodide staining-based fluorometric analysis; type: functional, cell-based; conditions: OVCAR-3, 96 h
PANC-1 = assay: Cytotoxicity against human PANC1 cells after 4 days by propidium iodide staining-based fluorometric analysis; type: functional, cell-based; conditions: PANC-1, 96 h
[31] = biological target: T1, Epidermal growth factor receptor (Homo sapiens, UniProt P00533); assay: Inhibition of EGFR using poly(Glu,Tyr)4:1 as substrate and [gamma33P]ATP at 1 uM after 60 mins by scintillation counting
T1 sequence (P00533 whole entry): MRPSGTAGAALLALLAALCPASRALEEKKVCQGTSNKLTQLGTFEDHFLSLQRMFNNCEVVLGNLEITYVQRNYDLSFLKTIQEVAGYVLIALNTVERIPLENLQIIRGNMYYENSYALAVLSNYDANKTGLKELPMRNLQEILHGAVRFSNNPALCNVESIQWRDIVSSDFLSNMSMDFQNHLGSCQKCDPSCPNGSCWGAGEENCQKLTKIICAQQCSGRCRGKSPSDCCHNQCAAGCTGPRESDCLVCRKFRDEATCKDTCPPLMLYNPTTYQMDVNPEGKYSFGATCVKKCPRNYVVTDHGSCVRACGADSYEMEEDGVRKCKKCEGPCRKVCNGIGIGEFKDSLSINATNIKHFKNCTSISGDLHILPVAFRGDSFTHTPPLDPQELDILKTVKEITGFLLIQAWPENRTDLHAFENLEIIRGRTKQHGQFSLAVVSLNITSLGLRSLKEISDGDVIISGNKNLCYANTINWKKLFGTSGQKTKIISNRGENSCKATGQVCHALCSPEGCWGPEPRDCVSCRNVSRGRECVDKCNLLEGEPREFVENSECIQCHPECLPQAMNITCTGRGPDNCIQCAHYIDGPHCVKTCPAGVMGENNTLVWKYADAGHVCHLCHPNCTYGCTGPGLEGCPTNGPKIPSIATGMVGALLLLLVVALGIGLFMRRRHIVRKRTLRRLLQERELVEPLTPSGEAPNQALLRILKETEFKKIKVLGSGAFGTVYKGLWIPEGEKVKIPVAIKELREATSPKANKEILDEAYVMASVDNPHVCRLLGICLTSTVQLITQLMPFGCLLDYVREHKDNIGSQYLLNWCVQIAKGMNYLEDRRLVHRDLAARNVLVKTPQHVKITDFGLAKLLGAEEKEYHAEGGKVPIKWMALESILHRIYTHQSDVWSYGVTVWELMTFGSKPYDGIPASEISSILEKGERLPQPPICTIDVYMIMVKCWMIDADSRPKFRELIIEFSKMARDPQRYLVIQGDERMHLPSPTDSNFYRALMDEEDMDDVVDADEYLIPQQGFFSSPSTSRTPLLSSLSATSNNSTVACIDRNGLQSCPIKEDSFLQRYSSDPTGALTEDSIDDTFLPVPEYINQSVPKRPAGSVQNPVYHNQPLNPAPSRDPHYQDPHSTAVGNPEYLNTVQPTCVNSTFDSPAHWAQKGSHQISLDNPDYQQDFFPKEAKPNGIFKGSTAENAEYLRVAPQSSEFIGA

[32] = biological target: Vascular endothelial growth factor receptor 2 (Homo sapiens) (UniProt P35968); assay: Inhibition of VEGFR2 using poly(Glu,Tyr)4:1 as substrate and [gamma33P]ATP at 1 uM after 60 mins by scintillation counting
Sequence of Vascular endothelial growth factor receptor 2 (Homo sapiens) (P35968 whole entry): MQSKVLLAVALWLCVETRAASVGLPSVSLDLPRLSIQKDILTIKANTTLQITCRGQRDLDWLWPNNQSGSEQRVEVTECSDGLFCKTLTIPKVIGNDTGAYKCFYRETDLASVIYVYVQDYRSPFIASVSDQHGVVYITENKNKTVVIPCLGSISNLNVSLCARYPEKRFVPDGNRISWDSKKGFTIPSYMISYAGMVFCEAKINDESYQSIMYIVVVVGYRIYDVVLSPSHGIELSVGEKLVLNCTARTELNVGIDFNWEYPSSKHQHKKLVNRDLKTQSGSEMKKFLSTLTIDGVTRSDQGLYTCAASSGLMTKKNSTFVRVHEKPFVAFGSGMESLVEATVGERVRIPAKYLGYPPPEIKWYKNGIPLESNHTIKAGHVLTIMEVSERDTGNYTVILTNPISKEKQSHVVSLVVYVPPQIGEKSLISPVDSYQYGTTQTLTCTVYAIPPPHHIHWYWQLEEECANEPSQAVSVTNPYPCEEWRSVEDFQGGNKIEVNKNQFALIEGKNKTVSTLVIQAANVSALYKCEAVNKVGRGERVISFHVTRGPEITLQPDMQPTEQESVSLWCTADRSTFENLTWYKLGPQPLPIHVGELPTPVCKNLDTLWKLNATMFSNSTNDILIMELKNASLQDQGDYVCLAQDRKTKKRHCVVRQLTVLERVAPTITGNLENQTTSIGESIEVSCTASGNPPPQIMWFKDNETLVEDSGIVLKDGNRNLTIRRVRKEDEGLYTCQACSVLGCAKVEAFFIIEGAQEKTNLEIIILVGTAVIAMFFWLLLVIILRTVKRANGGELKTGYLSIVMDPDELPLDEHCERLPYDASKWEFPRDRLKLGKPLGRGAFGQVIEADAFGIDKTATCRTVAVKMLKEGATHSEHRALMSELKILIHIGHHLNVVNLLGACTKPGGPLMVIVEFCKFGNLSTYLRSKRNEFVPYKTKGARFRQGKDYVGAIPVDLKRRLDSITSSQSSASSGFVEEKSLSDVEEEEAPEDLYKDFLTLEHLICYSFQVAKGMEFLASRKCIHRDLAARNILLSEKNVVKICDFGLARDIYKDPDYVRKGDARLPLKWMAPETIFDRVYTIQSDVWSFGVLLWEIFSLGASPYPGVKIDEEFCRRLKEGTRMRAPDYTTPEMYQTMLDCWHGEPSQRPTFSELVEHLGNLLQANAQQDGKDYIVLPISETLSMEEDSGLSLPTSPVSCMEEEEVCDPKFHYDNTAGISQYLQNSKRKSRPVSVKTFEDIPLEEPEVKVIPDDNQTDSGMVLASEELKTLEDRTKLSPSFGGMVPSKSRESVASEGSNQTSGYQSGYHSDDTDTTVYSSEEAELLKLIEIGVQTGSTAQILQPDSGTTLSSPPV

[33] = biological target: Receptor tyrosine-protein kinase erbB-2 (Homo sapiens) (UniProt P04626); assay: Inhibition of Erbb2 using poly(Glu,Tyr)4:1 as substrate and [gamma33P]ATP at 1 uM after 60 mins by scintillation counting
[34] = biological target: T1, Epidermal growth factor receptor; assay: Inhibition of EGFR using poly(Glu,Tyr)4:1 as substrate and [gamma33P]ATP after 60 mins by scintillation counting

Compound: CS(=O)(=O)CCNCc1ccc(-c2ccc3ncnc(Nc4ccc(OCc5cccc(F)c5)c(Cl)c4)c3c2)o1 [LAPATINIB]
- inhibition [1]: inactive
- pIC50 [2]: 5.02
- pIC50 [3]: 5.24
- pIC50 (SAOS-2): 5.03
- pIC50 [4]: 4.93
- pIC50 [5]: 5.38
- pIC50 [6]: 5.34
- pIC50 (TE-671): 4.96
- pIC50 (DU-145): 5.52
- pIC50 [7]: 5.47
- pIC50 [8]: 5.11
- pIC50 [9]: 4.95
- pIC50 [10]: 5.02
- pIC50 [11]: 5.02
- pIC50 [12]: 5.11
- pIC50 [13]: 5.31
- pIC50 (HCT-116): 4.88
- pIC50 (MCF7): 5.32
- pIC50 [14]: 4.94
- pIC50 [15]: 5.83
- pIC50 [16]: 5.12
- pIC50 [17]: 5.08
- pIC50 [18]: 6.63
- pIC50 [19]: 5.54
- pIC50 [20]: 4.94
- pIC50 (MKN-45): 4.94
- pIC50 [21]: 5.45
- pIC50 [22]: 5.16
- pIC50 [23]: 5.36
- pIC50 (RKO): 5.27
- inhibition [24]: inactive
- pIC50 (LNCaP): 5.43
- pIC50 (CWR22R): 5.22
- pIC50 [25]: 5.24
- pIC50 [26]: 5.21
- pIC50 [27]: 5.11
- pIC50 [28]: 5.14
- pIC50 [29]: 5.04
- pIC50 [30]: 4.99
- pIC50 (HT-29): 5.34
- pIC50 (CAL-27): 6.28
- pIC50 (NCI-H460): 4.87
- pIC50 (OVCAR-3): 4.87
- pIC50 (PANC-1): 5.09

Compound: O=C(c1cc2ccccc2[nH]1)c1cc2c(Nc3ccc(F)c(Cl)c3)ncnc2s1
- inhibition [1]: inactive
- pIC50 [2]: 4.85
- inhibition [31]: 100%
- pIC50 [3]: 5.41
- inhibition [32]: 15%
- pIC50 (SAOS-2): 4.94
- pIC50 [4]: 5.04
- pIC50 [5]: 4.97
- pIC50 [6]: 5.24
- pIC50 (TE-671): 4.85
- pIC50 (DU-145): 5.36
- pIC50 [7]: 5.25
- pIC50 [8]: 4.93
- pIC50 [9]: 4.75
- pIC50 [10]: 4.87
- pIC50 [11]: 4.94
- pIC50 [12]: 5.09
- pIC50 [13]: 4.96
- pIC50 (HCT-116): 5.08
- pIC50 (MCF7): 5.16
- pIC50 [14]: 4.99
- pIC50 [15]: 5.56
- pIC50 [16]: 5.04
- inhibition [33]: 80%
- pIC50 [17]: 4.97
- pIC50 [18]: 5.86
- pIC50 [19]: 5.31
- pIC50 [20]: 4.95
- pIC50 (MKN-45): 4.90
- pIC50 [21]: 5.06
- pIC50 [22]: 4.75
- pIC50 [23]: 5.35
- pIC50 (RKO): 5.14
- inhibition [24]: inactive
- pIC50 (LNCaP): 5.21
- pIC50 (CWR22R): 5.26
- pIC50 [25]: 5.18
- pIC50 [26]: 4.93
- pIC50 [27]: 5.01
- pIC50 [28]: 5.09
- pIC50 [29]: 5.26
- pIC50 [30]: 5.09
- pIC50 [34]: 8.26
- pIC50 (HT-29): 5.11
- pIC50 (CAL-27): 5.58
- pIC50 (NCI-H460): 5.24
- pIC50 (OVCAR-3): 5.07
- pIC50 (PANC-1): 5.15
